Data taken from patent publication US20100136034A1, “NOVEL MULTIMERIC MOLECULES, A PROCESS FOR PREPARING THE SAME AND THE USE THEREOF FOR MANUFACTURING MEDICINAL DRUGS” (CENTRE NATIONAL DE LA RECHERCHE SCIENTIFIQUE, priority 2007, published 2010).
Non-standard residues stand in square brackets, D forms with d. No end group written: not given here. Ahx = NCCCCCC(=O)O

Key:
[1] = test system: murine spleen B cells; test: Spleen B cell proliferation ([3H]-thymidine uptake); format: cell-based, BALB/c mice; settings: ligand alone, without anti-CD40 antibody 3/23; 72 hours; FIG. 5B
Protocol: Spleens were surgically removed from BALB/c mice aged from 5 to 12 weeks. Spleen B cells were prepared by positive selection using magnetic beads coated with monoclonal anti-CD19 antibodies (MACS, Milteny biotech, Germany). This fraction contains over 95% of B220^+ cells. B cells (3×10^6/ml) were next cultured in RPMI 1640 medium supplemented with 10% complement depleted FBS, gentamycin (10 μg/ml), 25 mM HEPES and […] β-mercaptoethanol in presence of CD40L analogs. Cells were pulsed with 1 μCi/well of tritiated thymidine (ICN, Irvine, Calif.) for the last 20 hours of culturing and the uptake of [^3H]-thymidine as expressed in cpm was measured after 72 hours using a Matrix 9600 model direct 13 counter (Packard, Meriden, Conn.). Results (FIG. 5B) are expressed as a stimulation index corresponding to cpm obtained for cultures with CD40L analogs divided by cpm obtained for cultures without CD40L analogs. Mice used in this study were raised in our animal housing facilities which are licensed by the french veterinary administration under number D-67-482-2.

[2] = test system: Burkitt's lymphoma RAJI cells; test: Induction of apoptosis in Burkitt's lymphoma RAJI cells (drop in mitochondrial transmembrane potential, DiOC6(3), flow cytometry); format: cell-based; settings: 16 hours incubation with CD40L analog, FIG. 5A
Protocol: Burkitt's lymphoma (RAJI) was cultured in RPMI 1640 medium (Cambrex Bioscience, Verviers, Belgium) supplemented with 10% decomplemented foetal calf serum (FBS) and gentamycin (10 μg/ml). For assaying apoptosis, cells (1×10^6/ml) were incubated at 37° C. in 96-well plates, at the specified concentrations of CD40L analogs, in a final volume of 200 μl. After incubation for 16 hours, cell apoptosis was measured as described herein below.
To this end, cells were pulsed with DiOC6(3) (Interchim, Montluçon, France)) at a final concentration of 40 nM for the last 45 minutes of culturing.
Cells were subsequently washed, resuspended in 300 μl of PBS and analyzed by flow cytometry. Results (FIG. 5A) are expressed in percentage of specific apoptosis according the following formula: % of specific apoptosis=[(% of dead treated cells−% of dead control cells)×100]/(100−% de dead control cells).
Cells were analyzed by a FACSCalibur® instrument. At least 25000 pulse is events were acquired for each experiment using the CellQuest 3.3 software (Becton Dickinson, Pont de Claix, France) and data were analyzed using the WinMDI 2.8 software (Joseph Trotter, Scripps Research Institute, http://facs.scripps.edu/software.html).

Substance: L41: dimeric ligand by click chemistry: dimerized macrocycle IV.25 coupled to pentapeptide P1 (Lys-Gly-Tyr-Tyr-Ahx), deprotected (peptide KGYY[Ahx]; chain AKKKAK; also: dimerized macrocycle IV.25 (cyclised hexapeptide) joined by click chemistry (triazole) to pentapeptide P1 (Lys-Gly-Tyr-Tyr-Ahx), D-residues and non-natural residues not placed)
- B cell proliferation (stimulation index, [3H]-thymidine uptake) [1]: induces alone murine spleen B cell proliferation
- percentage of specific apoptosis [2]: induces a Burkitt lymphoma (RAJI) specific apoptosis percentage
